Data: publication PMC6273820, “Antimicrobial Activity and Stability of Short and Long Based Arachnid Synthetic Peptides in the Presence of Commercial Antibiotics” (Molecules, 2016)
Where no end group is shown, it is not given here.

Experiments:
[1] = system: Escherichia coli ATCC 25922; assay: microbe, parasite or virus in culture; type: cell-based; details: broth microdilution (CLSI), Mueller-Hinton broth, 18 h at 37 °C, A625nm; peptides n = 8
Description: It was determined using the broth microdilution assay in accordance with the procedures from the Clinical and Laboratory Standards Institute. For broth microdilution assays, pathogenic bacteria, such as Escherichia coli ATCC 25922, Staphylococcus aureus ATCC 25923, Pseudomonas aeruginosa ATCC 27853 and Klebsiella pneumoniae ST258, were cultured in Mueller-Hinton broth (MHB) at 37 °C until an end point between of 0.08 and 0.13 units of absorbance at 625 nm and diluted 1:100 in MHB (ca. […]). Fifty microliters of this bacterial suspension was dispensed into each well of a 96-well microtiter Costar® culture plates (Sigma Aldrich) having 50 µL of MHB containing a proper concentration of pure AMPs, antibiotics or the mixture of either of the AMPs with either of the antibiotics used. Dilutions of peptides and antibiotics were made manually with two-fold dilutions. […]

[2] = system: Pseudomonas aeruginosa ATCC 27853; assay: microbe, parasite or virus in culture; type: cell-based; details: broth microdilution (CLSI), Mueller-Hinton broth, 18 h at 37 °C, A625nm; peptides n = 8
Description: (§1) It was determined using the broth microdilution assay in accordance with the procedures from the Clinical and Laboratory Standards Institute. For broth microdilution assays, pathogenic bacteria, such as Escherichia coli ATCC 25922, Staphylococcus aureus ATCC 25923, Pseudomonas aeruginosa ATCC 27853 and Klebsiella pneumoniae ST258, were cultured in Mueller-Hinton broth (MHB) at 37 °C until an end point between of 0.08 and 0.13 units of absorbance at 625 nm and diluted 1:100 in MHB (ca. […]). Fifty microliters of this bacterial suspension was dispensed into each well of a 96-well microtiter Costar® culture plates (Sigma Aldrich) having 50 µL of MHB containing a proper concentration of pure AMPs, antibiotics or the mixture of either of the AMPs with either of the antibiotics used. Dilutions of peptides and antibiotics were made manually with two-fold dilutions.
(§2) E. coli, S. aureus, P. aeruginosa and K. pneumoniae were grown in the presence of each of the four AMPs, and in the presence of each of the eight commercial antibiotics, which were Levofloxacin, Trimethoprim, Sulfamethoxazole, Azithromycin, Amoxicillin, Ceftriaxone, Gentamicin and Vancomycin, and in combinations of AMPs and the antibiotics. That is, the antimicrobial capacity of each AMP (50, 25, 12.5 and 6.2 µg/ mL) in combination with each antibiotic agent (50, 25, 12.5, 3.2, 1.6 and 0 µg/ mL) was measured as described above. For evaluation of the effect of the mixtures, the fractional inhibitory concentration (FIC) was calculated for each antibiotic in each combination. The following formulas were used to calculate the FIC index: FIC of AMP = MIC of AMP in combination with Antibiotic/MIC of AMP alone; FIC of Antibiotic = MIC of Antibiotic in combination with AMP/MIC of Antibiotic alone, and FIC index = FIC of AMP + FIC of Antibiotic. Synergy was defined as an FIC index of <0.5. Additive was defined as an FIC index of >0.5 but of <4, and finally antagonism was defined as an FIC index of >4.

[3] = system: Staphylococcus aureus ATCC 25923; assay: microbe, parasite or virus in culture; type: cell-based; details: broth microdilution (CLSI), Mueller-Hinton broth, 18 h at 37 °C, A625nm; peptides n = 8
Description: as §1, §2

[4] = system: Klebsiella pneumoniae ST258; assay: microbe, parasite or virus in culture; type: cell-based
Description: as §1
as §2, with “That” for “E. coli, S. aureus, P. aeruginosa and K. pneumoniae were grown in the presence of each of the four AMPs, and in the presence of each of the eight commercial antibiotics, which were Levofloxacin, Trimethoprim, Sulfamethoxazole, Azithromycin, Amoxicillin, Ceftriaxone, Gentamicin and Vancomycin, and in combinations of AMPs and the antibiotics. That”

[5] = Stability in saline buffer (PBS); type: physicochemical; details: 20 μg peptide in PBS pH 7.4, 37 °C, 7 days; height of peptide peak in reverse phase HPLC
Description: The stability of the four synthetic peptides (20 μg) was measured in phosphate buffered saline (PBS) that consisted of NaCl (137 mM), KCl (2.7 mM), Na2HPO4 (10 mM) and KH2PO4 (2 mM) at 37 °C for 7 days (pH 7.4). The stability of peptides in PBS was monitored measuring the height of the peptide peak when separated using reverse phase HPLC under the separation conditions mentioned above.

[6] = Stability in human blood plasma; type: in vitro ADME; details: 50 μg/mL
Description: (§3) The four synthetic peptides were subjected to incubation in human blood plasma or in the supernatant of S. aureus and P. aeruginosa growth. The AMPs were diluted in human blood plasma or in the supernatant of bacterial growth (50 μg/mL) and incubated at 37 °C for 12 h. After peptide extraction, the AMPs were separated by reverse phase HPLC using a C18 column (Vydac 218 TP54, Grace Co.) and a linear gradient of acetonitrile in 0.1% aqueous TFA from 0 to 60% in 60 min at a flow rate of 1 mL/min. Effluent absorbance was monitored at 230 nm. Peptide fractions were dried under vacuum, resuspended and analyzed by ESI-MS to confirm their molecular masses.

[7] = Stability in supernatant of S. aureus growth; type: in vitro ADME, Staphylococcus aureus; details: 50 μg/mL, 12 h at 37 °C, extraction, reverse phase HPLC at 230 nm
Description: as §3

[8] = Stability in supernatant of P. aeruginosa growth; type: in vitro ADME, Pseudomonas aeruginosa; details: 50 μg/mL, 12 h at 37 °C, extraction, reverse phase HPLC at 230 nm
Description: as §3

[9] = cited from earlier work
Text: Concerning AMPs, several physicochemical characteristics have been associated with the biological activity of them. Those that are relevant include hydrophobicity, the helical hydrophobic moment, as well as the size and the net charge of the peptide. However, no particular value relating to any of these characteristics was solely sufficient to correlate with the antimicrobial activity of the AMPs tested. In this case, however, the larger peptides FA1 and Pin2[G] were the AMPs that manifested optimum biological performance. Nevertheless, a fine balance in terms of physicochemical pr ...

GILKTIKSIASKVANTVQKLKRKAKNAV [FA1]
Minimal Inhibitory Concentration, E. coli [1]: 12.5 µg/mL
Minimal Inhibitory Concentration, P. aureginosa [2]: 25 µg/mL
Minimal Inhibitory Concentration, S. aureus [3]: >50 µg/mL
Minimal Inhibitory Concentration, K. pneumoniae ([4]; broth microdilution (CLSI), Mueller-Hinton broth, 18 h at 37 °C, A625nm, peptides n = 8): >50 µg/mL
Peptide (MIC) ([4]; peptide alone against K. pneumoniae, based on Figure 2): >50 µg/mL
Stability in saline buffer [5]: less stable
Peptide found after incubation in human blood plasma ([6]; 12 h at 37 °C, extraction, reverse phase HPLC at 230 nm, ESI-MS): not found
Recovery after interaction with human plasma, first few minutes of dilution ([6]; extracted after the first few minutes of dilution, reverse phase HPLC): none
Stability in supernatants of S. aureus [7]: only a small amount
Stability in supernatants of P. aeruginosa [8]: not found
hemolytic activity [9]: 665 µM
